Earlier results on one compound are cited in patent US20140271927A1, “COMPOSITION AND METHOD FOR TREATING NEUROPATHY” (priority 2013, published 2014).

For the series the following is noted: published studies reviewed.

As to `[Cr]` [chromium], the “lowering the HbgAlc” value was 1-2%.
